Patent publication US20240398783A1, “Compounds and Pharmaceutical Compositions Comprising Inhibitors of Amyloid Peptide Interactions with Glycosaminoglycans, Methods of Treatment and Use Thereof” (Gismo Therapeutics, Inc., priority 2021, published 2024)
Where a name gives a salt, the structure may show the parent alone. Read-outs that look alike come from different tables or passages of the source.

Key:
[1] = biological target: Tau binding to purified human brain membranes (Homo sapiens, UniProt P10636); assay: Inhibition of Tau binding to purified human brain cell membranes (ELISA)
Sequence of Tau binding to purified human brain membranes (P10636 with tags, fused parts or gaps): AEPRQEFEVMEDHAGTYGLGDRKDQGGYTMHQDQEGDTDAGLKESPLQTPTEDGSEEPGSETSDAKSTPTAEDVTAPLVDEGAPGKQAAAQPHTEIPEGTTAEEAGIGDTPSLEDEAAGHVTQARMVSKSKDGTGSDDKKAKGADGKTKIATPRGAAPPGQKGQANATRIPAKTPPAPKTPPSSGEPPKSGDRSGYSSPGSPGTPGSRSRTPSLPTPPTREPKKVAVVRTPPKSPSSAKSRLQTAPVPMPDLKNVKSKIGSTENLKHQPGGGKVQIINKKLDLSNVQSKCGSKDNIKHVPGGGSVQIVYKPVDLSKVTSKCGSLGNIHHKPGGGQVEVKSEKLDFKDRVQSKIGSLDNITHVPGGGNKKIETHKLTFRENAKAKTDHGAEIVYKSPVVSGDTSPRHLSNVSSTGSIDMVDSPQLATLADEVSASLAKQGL
Method: (§1) Purified human brain cell membranes were prepared by differential centrifugation as follows. Five grams of frozen human brain postmortem tissue (obtained from University of Kentucky Alzheimer's Disease Center Tissue Bank) was homogenized in 50 ml HEPES-Buffered sucrose (0.32M sucrose, 4 mM HEPES pH7.4, protease inhibitors) with a motor driven glass-teflon homogenizer. After removing nuclear and cell debris by centrifugation of homogenates at 1,000×g for 10 min at 4 degree Celsius, post-nuclear supernatant was centrifuged at 100,000×g for 30 minutes to yield the crude membrane pellet. Crude membrane pellet was re-suspended in 0.32M sucrose, then centrifuged again at 100,000×g for 30 minutes to yield washed membrane pellet. Membrane pellet was resuspended in sterile PBS (pH7.4), quickly frozen, and kept in aliquots at −80 degrees Celsius. This preparation contains human brain cell membranes. Protein concentration was measured with BCA protein assay kit (Pierce Cat. No. 23227). Purified brain membranes were diluted to 0.01 mg/ml in PBS (pH 7.4) and then added to a 96 well polystyrene ELISA plate (NUNC Cat. No. 449824; 100 μl per well). Plates were incubated Over Night (ON) at 4 degrees Celsius. Following the incubation, the plate was washed consecutively, by immersion, with de-ionized water and PBS (pH 7.4). The ELISA plate was then blocked with nonfat milk (2%, 200 μl per well) for 2 hours at Room Temperature (RT). Following blocking, the plate was washed with de-ionized water then PBS (pH 7.4). GBAPs were dissolved and diluted in PBS (pH 6.5, supplemented with 0.1% BSA) at desired concentrations, added to the ELISA plates coated with brain membranes (100 μl per well) and incubated for 2 hours at RT with gentle shaking. Following incubation, the plate was washed with de-ionized water and three times with PBS (pH 6.5) plus Tween. Bound GBAP was detected by a monoclonal antibody specific for that GBAP, followed by incubation with secondary antibody conjugated to horseradish peroxidase (HRP). Antibody was diluted in PBS (pH6.5 supplemented with 1% BSA). Following each incubation with antibody, the plate was washed with de-ionized water and three times with PBS (pH6.5) wash buffer containing 0.1% Tween. The peroxidase substrate chromogen, TMB (Dako Cat. No. S1599) was added (100 μl per well) to the ELISA plate and incubated at room temperature. After 5 minutes ELISA Stop Solution (hydrochloric acid 1N, sulfuric acid 3N) was added (100 μl per well) to stop the peroxidase catalyzed colorimetric reaction. The Optical Density of the samples was measured at 450 nm using an ELISA plate reader (BioTek Synergy H1). Following color development, the % inhibition compared to control was determined. IC-50s were calculated using GraphPad Prism software.
The assay was performed as described in Example 49, with the following modifications.
Following to coating the plates with purified human brain cell membranes, plates were washed as described. The compounds were dissolved in DMSO at 10 mM final concentration and further diluted prior to assay. DMSO concentration in the screening well was up to 2%. Individual compounds were co-incubated with Tau on plates coated with purified human brain membranes. Tau purchased from rPeptide (Cat. No. T1001) was dissolved in DMSO (Sigma Cat. No. D2650), quickly frozen and kept in aliquots at −80 degrees Celsius. Tau dissolved in PBS (pH 6.5, supplemented with BSA, 0.1%) was added to the ELISA plate (100 μl per well) and incubated for 2 hours at RT with gentle shaking. Following the incubation, the plate was washed with de-ionized water and three times with PBS (pH 6.5) plus Tween. Bound Tau was detected by anti-Tau Monoclonal Antibody D-8 (Santa Cruz Cat. No. sc-166060), followed by secondary anti-IgG antibody conjugated to HRP (R&D System, Cat. No. HAF007). Following to color development with TMB, as described in Example 49, the Optical Density of the samples was measured at 450 nm using an ELISA plate reader. […]

[2] = biological target: T1, Amyloid-beta(1-42) oligomer binding to purified human brain membranes (Homo sapiens, UniProt P05067); assay: Inhibition of Amyloid-beta(1-42) oligomer binding to purified human brain cell membranes (ELISA); conditions: Abeta(1-42) oligomers, read-out: Abeta42/Membrane Activity (IC-50)
T1 construct: Beta-amyloid (1-42) was purchased from rPeptide (Cat. No. A1163); purchased rPeptide A1163
T1 sequence (P05067 672-713): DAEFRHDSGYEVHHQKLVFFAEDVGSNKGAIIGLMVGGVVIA
Method: as §1
(§2) The assay was performed as described in Example 49, with the following modifications. Following to coating the plates with purified human brain cell membranes, plates were washed as described. The compounds were dissolved in DMSO at 10 mM final concentration and further diluted prior to assay. DMSO concentration in the screening well was up to 2%. Individual compounds were co-incubated with Beta-amyloid peptides on plates coated with purified human brain membranes. Beta-amyloid (1-42) oligomers were prepared as described in Example 2. Beta-amyloid (1-40) from rPeptide (Cat No. A1153) was dissolved in DMSO, quickly frozen and kept in aliquots at −80 degrees Celsius. Beta-amyloid (1-42) oligomers or Beta-amyloid (1-40) dissolved in PBS (pH 6.5, supplemented with BSA, 0.1%) were added to the ELISA plate (100 μl per well) and incubated for 2 hours at RT with gentle shaking. Following the incubation, the plate was washed with de-ionized water and three times with PBS (pH 6.5) plus Tween. […]

[3] = biological target: T2, Amyloid-beta(1-40) binding to purified human brain membranes (Homo sapiens, UniProt P05067); assay: Inhibition of Amyloid-beta(1-40) binding to purified human brain cell membranes (ELISA); conditions: Abeta(1-40), read-out: Abeta40/Membrane Activity (IC-50)
T2 construct: Beta-amyloid (1-40) from rPeptide (Cat No. A1153) was dissolved in DMSO; purchased rPeptide A1153
T2 sequence (P05067 672-711): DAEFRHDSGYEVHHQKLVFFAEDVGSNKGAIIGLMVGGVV
Method: as §1, §2

Q: With Clc1ccc2c(N/N=C/c3ccc(-n4cccn4)cc3)ccnc2c1 [Compound 3, (E)-4-((E)-(4-(1H-pyrazol-1-yl)benzylidene)hydrazono)-7-chloro-1,4-dihydroquinoline] as the compound, how does the IC50 [1] read?
A: 8.82 µM

Q: And the IC50 [2]?
A: 11.5 µM

Q: For Clc1ccc2c(N/N=C/c3ccc(-n4ccnc4)nc3)ccnc2c1 [Compound 14, (E)-4-(2-((6-(1H-imidazol-1-yl)pyridin-3-yl)methylene)hydrazineyl)-7-chloroquinoline hydrochloride], which IC50 [1] is on record?
A: 1.86 µM

Q: And the IC50 [3]?
A: 18.4 µM

Q: What about the IC50 [2] of the same compound?
A: 6.03 µM

Q: How did the IC50 [1] turn out when C/C(=N\Nc1ncnc2cc(Cl)ccc12)c1ccc(-n2cnc(C)c2C)nc1 [Compound 16, 7-chloro-4-(2-(1-(6-(4,5-dimethyl-1H-imidazol-1-yl)pyridin-3-yl)ethylidene)hydrazineyl)quinazoline phosphate] was run?
A: 9.61 µM

Q: And the IC50 [3]?
A: 2.88 µM

Q: And the IC50 [2]?
A: 3.29 µM

Q: C/C(=N\Nc1nncc2cc(Cl)ccc12)c1ccc(-n2cc(C)nc2C)nc1 [Compound 24, (E)-6-chloro-1-(2-(1-(6-(2,4-dimethyl-1H-imidazol-1-yl)pyridin-3-yl)ethylidene)hydrazineyl)phthalazine] was tested. Which IC50 ([1]; Tau, purified human brain membranes, read-out: Tau/Membrane Activity (IC-50)) did it give?
A: 2.56 µM

Q: What about the IC50 [3] of the same compound?
A: 24.5 µM

Q: And the IC50 [2]?
A: 6.67 µM

Q: With Clc1ccc2c(N/N=C/c3ccc(-n4ccnc4)cc3)ccnc2c1 [Compound 38, 4-(2-(4-(1H-imidazol-1-yl)benzylidene)hydrazineyl)-7-chloroquinoline dihydrochloride] as the compound, how does the IC50 [1] read?
A: 4.86 µM

Q: And the IC50 [3]?
A: 0.36 µM

Q: And the IC50 [2]?
A: 4.62 µM

Q: How did the IC50 [1] turn out when Cc1ncn(-c2ncc(Nc3ncnc4cc(Cl)ccc34)cc2O)c1C [Compound 40, 5-((7-chloroquinazolin-4-yl)amino)-2-(4,5-dimethyl-1H-imidazol-1-yl)pyridin-3-ol phosphoric acid salt] was run?
A: 65.1 µM

Q: What about the IC50 [2] of the same compound?
A: 4.36 µM
